Results taken from US20250143933A1, “ENDOSCOPIC, PERCUTANEOUS AND OTHER METHODS FOR DISSOLUTION OF PANCREATIC NECROSIS” (The Johns Hopkins University, priority 2021, published 2025).

Assays:
[1] = previous attempts, literature; cited from earlier work
[2] = concentrations higher than 30%; cited from earlier work
[3] = Ex vivo dissolution of solid WON debris by candidate debridement compounds; set-up: species or system human
Procedure: To perform preliminary proof-of-concept testing, solid WON debris was collected from seven patients undergoing endoscopic necrosectomy. […] Several candidate compounds that might be suitable, alone or in combination, for WON debris dissolution were identified. The candidate debridement compounds were tested on ex vivo samples to assess their capacity for dissolving WON debris.

[4] = cited from earlier work

## streptokinase: previously tried chemical dissolution agent to aid endoscopic necrosectomy
[1]
  Success as chemical dissolution agent to aid endoscopic necrosectomy: minimal success

## OO [Hydrogen peroxide, reference compound]
[2]
  Toxicity (local damage): shown to be toxic
[1]
  Success as chemical dissolution agent to aid endoscopic necrosectomy: minimal success

## CC(C)=O [acetone, reference compound]
[3]; ex vivo samples from patients undergoing endoscopic necrosectomy, lipophilic solvent
  Effect on WON debris (dissolution): minimal to no effect

## [O][Cl+][O-] [Chlorine dioxide, reference compound]
[4]; chlorine dioxide 13.8%
  Effect compared to 5.8% NaOCl: shown to be similar

## OCl [NaOCl, Sodium hypochlorite]
[4]; 8.25% NaOCl, dental surgery studies (Cullen et al., 2015)
  Pulp dissolution: rapid pulp dissolution
[3]; ex vivo, concentration of 5% (FIG. 4)
  Solvent properties in WON samples: excellent solvent properties
[3]; petri dish, dilute sodium hypochlorite 2.5% (FIG. 4)
  Time to breakdown of human pancreas necrosis debris: within minutes

## tissue plasminogen activator: previously tried chemical dissolution agent to aid endoscopic necrosectomy
[1]
  Success as chemical dissolution agent to aid endoscopic necrosectomy: minimal success
